Test results as given in publication PMC5338256, “D-form KLKLLLLLKLK-NH2 peptide exerts higher antimicrobial properties than its L-form counterpart via an association with bacterial cell wall components” (Scientific Reports, 2017).
Converted amounts (≈) assume the structure as drawn. Non-standard residues stand in square brackets, D forms with d. Residues, ends and D or L forms follow the SMILES beside them.

Assays:
S. aureus [1] = type: cell-based, Staphylococcus aureus (NBRC100910)
Protocol: (§1) S. aureus (NBRC100910), E. coli W3110 (NBRC12713), E. hirae (NBRC3181), C. albicans (NBRC1385), and S. Typhimurium 14028s (ATCC14028)[2] were used in this study. S. aureus, E. coli, and S. Typhimurium were grown at 37 °C with aeration in Muller-Hinton II medium (BD Biosciences). E. hirae was grown at 37 °C in LB medium (Nacalai Tesque, Inc.) containing 0.5% glucose (w/v). C. albicans was grown at room temperature with aeration in YM medium (BD Biosciences). All experiments were conducted using bacterial cells and C. albicans in the logarithmic-phase of growth.
Bacterial suspensions in Muller-Hinton II medium were adjusted to an optical density of 550 nm (OD550) = 0.0011. C. albicans suspensions in YM medium were adjusted to OD650 = 0.033. Peptides were serially diluted in 10 mM phosphate buffer (pH 6.0) containing 130 mM sodium chloride, 0.2% bovine serum albumin, and 2.56% dimethyl sulfoxide. The peptide solution (100 μl) was mixed with 100 μl of bacteria or C. albicans suspensions. Bacterial cultures were incubated for one day at 37 °C. C. albicans cultures were incubated for two days at room temperature. Cell growth was monitored optically and the MIC was determined.

S. aureus [2] = assay: Assay for antimicrobial activity (10 min exposure, CFU); type: cell-based, Staphylococcus aureus (NBRC100910); conditions: for antimicrobial activity (CFU), D-form compared with L-form: 10 min at 37 °C
Protocol: as §1
Bacteria and C. albicans were suspended in growth medium. Peptides suspended in dimethyl sulfoxide were serially diluted in 10 mM phosphate buffer (pH 6.0) containing 130 mM sodium chloride, 0.2% bovine serum albumin as described previously. In order to examine the effects of bovine serum albumin on the assay, 10 mM phosphate buffer (pH 6.0) containing 130 mM sodium chloride, was used for the dilution of peptides. Peptide solution (500 μl) was added to 500 μl of bacteria suspensions and then the mixture was incubated at 37 °C for 10 min. In order to examine the effects of culture medium components on the assay, bacteria suspension was prepared with 10 mM phosphate buffer (pH 6.0) containing 130 mM sodium chloride. Alternatively, 500 μl of peptide solution was added to 500 μl of C. albicans suspensions and the mixture was incubated at room temperature for 10 min. The inhibitory effects of the bacterial components were analyzed by incubating 450 μl of S. aureus suspension with 500 μl of peptide solution plus 50 μl of inhibitor samples at 37 °C for 10 min. Then, the peptide/bacteria suspensions were diluted and plated onto LB agar, LB agar containing 0.5% glucose, or YM agar. After cultivation of the plates, colony forming units (CFU) in the peptide/bacteria suspension were calculated based on the average of triplicate plates.

S. Typhimurium = assay: as above; type: cell-based, Salmonella enterica serovar Typhimurium 14028s; conditions: 10 min at 37 °C, triplicate plates
Protocol: as §1
Bacteria and C. albicans were suspended in growth medium. Peptides suspended in dimethyl sulfoxide were serially diluted in 10 mM phosphate buffer (pH 6.0) containing 130 mM sodium chloride, 0.2% bovine serum albumin as described previously. In order to examine the effects of bovine serum albumin on the assay, 10 mM phosphate buffer (pH 6.0) containing 130 mM sodium chloride, was used for the dilution of peptides. […] The inhibitory effects of the bacterial components were analyzed by incubating 450 μl of S. aureus suspension with 500 μl of peptide solution plus 50 μl of inhibitor samples at 37 °C for 10 min. […] After cultivation of the plates, colony forming units (CFU) in the peptide/bacteria suspension were calculated based on the average of triplicate plates.

S. aureus peptidoglycan = assay: Peptidoglycan-binding assay; set-up: species or system Staphylococcus aureus; conditions: biotin-labeled peptides on immobilized peptidoglycan; 37 °C, 2 h; avidin-labeled peroxidase, absorbance 450 nm; triplicate assays
Protocol: Peptidoglycan-binding assays were performed as previously described with some modifications. Peptidoglycan from S. aureus (100 μg/ml) was suspended in 0.2% trifluoroacetic acid and sonicated twice for 10 sec at setting 1 using a Branson sonifier model S-150D. The peptidoglycan suspension (50 μl) was used to coat the wells of a flat bottom 96-well microplate (Thermo Fisher Scientific). The plate was incubated at room temperature until the water evaporated. The plate was placed at 60 °C for 1 h to dry out completely, and then blocked with 200 μl of 5 mg/ml bovine serum albumin in binding buffer (10 mM phosphate buffer (pH 6.0) containing 130 mM sodium chloride, 0.05% Tween 20, and 0.01% trifluoroacetic acid) at 37 °C for 2 h. The plate was washed four times with 200 μl of binding buffer. Biotin-labeled peptides in 100 μl of binding buffer containing 0.5% dimethyl sulfoxide were added to the wells and incubated at 37 °C for 2 h. Detection of biotin-labeled peptides was performed using Vectastain ABC reagent (Vector Laboratories) according to manufacturer’s instructions. The wells were washed four times with binding buffer, then 100 μl of avidin-labeled peroxidase was added to each well, and the plate was incubated at 37 °C for 1 h. The wells were washed again as described above. […] Absorbance was measured at 450 nm.

CC(C)C[C@@H](NC(=O)[C@H](N)CCCCN)C(=O)N[C@H](CCCCN)C(=O)N[C@H](CC(C)C)C(=O)N[C@H](CC(C)C)C(=O)N[C@H](CC(C)C)C(=O)N[C@H](CC(C)C)C(=O)N[C@H](CC(C)C)C(=O)N[C@H](CCCCN)C(=O)N[C@H](CC(C)C)C(=O)N[C@H](CCCCN)C(N)=O [D-form KLKLLLLLKLK-NH2] (H-[dK][dL][dK][dL][dL][dL][dL][dL][dK][dL][dK]-NH2; N-terminus assumed)
fold by which the MIC of the D-form is lower than that of the L-form (S. aureus [1]; S. aureus): 16 fold
MIC (S. aureus [1]; pH 6): 1 µg/mL (≈ 0.757 µM)
antimicrobial activity relative to the standard assay condition (S. aureus [2]; 10 min, in the absence of culture medium and bovine serum albumin): lower
antimicrobial activity (CFU), D-form compared with L-form (S. aureus [2]; in the absence of culture medium and/or bovine serum albumin): higher antimicrobial activity
antimicrobial activity (CFU), D-form compared with L-form (S. aureus [2]; standard assay with culture medium and 0.2% BSA, triplicate plates): higher antimicrobial activity
peptide concentration at which D-form and L-form displayed similar antimicrobial activity (S. aureus [2]; 10 min exposure): 1.9 µg/mL
antimicrobial activity (CFU), D-form compared with L-form (S. Typhimurium): higher antimicrobial activity
affinity for S. aureus peptidoglycan, D-form compared with L-form (S. aureus peptidoglycan): higher affinity
